{
  "source": "patent US7662863B2",
  "about": "“Therapeutic agent for the use in reducing alcohol intoxication and reducing or eliminating the negative side effects associated with alcohol ingestion” (priority 2003, dated 2010)",
  "key": {"[1]": {"test": "Blood alcohol level (BAC test strip) in human subjects after alcohol consumption, glucarate versus placebo", "format": "in vivo", "settings": "twenty subjects", "description": "(§1) Twenty subjects, currently taking no form of d-glucarate, were recruited for the evaluation. On two separate occasions (at least 5 days apart) the subjects voluntarily consumed alcoholic beverages. The amount ingested was at their discretion, however it was the exact same about on both occasions and roughly over the same duration (+/−½ hour).\n(§2) On the first occasion, the subject was asked to take a placebo, while on the second occasion the subject was asked to take d-glucarate. The subjects were not informed what they were taking on either occasion, or of the difference between the placebo and chemical compound.\nOn the first occasion the placebo was administered prior to alcohol ingestion, after alcohol ingestion then 8 hours following ingestion.\nA BAC was used to determine the Blood alcohol level after consumption then 8 hours later.\n(§3) On the second occasion 1000 mg of Potassium Hydrogen Glucarate was administered before alcohol consumption, then 500 mg after alcohol consumption, then 1000 mg 8 hours later.\nA BAC test strip was used to determine the Blood alcohol level after consumption then 8 hours later."}, "hangover symptoms": {"tested_on": "hangover symptoms", "test": "Subject questionnaire on hangover symptoms and overall feelings after alcohol consumption, glucarate versus placebo", "format": "in vivo, human", "settings": "twenty subjects, questionnaire 12-14 hours after each occasion", "description": "as §1, §2, §3\nReferring to FIG. 2, 12-14 hours after each occasion the subjects filled out the questionnaire to reflect each subject's observation of hangover symptoms. A 1 on the scale represents the most severe of symptoms, and a 5 represents neutral feeling or no symptom. The black circle indicates the average on the 20 subjects studied.\nReferring to FIG. 3, the last parameter measured was the subjects overall feelings, a rating of 1 being the most unpleasant to a rating of 5 representing the most pleasant of each subject's typical feeling."}},
  "data": [
    {"smiles": "O=C(O)[C@@H](O)[C@@H](O)[C@H](O)[C@@H](O)C(=O)[O-].[K+]", "note": "[glucarate compound, Potassium Hydrogen Glucarate]", "values": [
      {"measurement": "decrease in the total level of recirculating alcohol relative to a placebo", "setting": "[1]; after rest and a duration of 8 hours, 1000 mg before and 500 mg after alcohol consumption", "result": 55, "unit": "%"},
      {"measurement": "reduction in the amount of alcohol recirculating within the blood stream relative to a placebo", "setting": "[1]; immediately after alcohol consumption, 1000 mg before alcohol consumption, oral", "result": 18, "unit": "%"},
      {"measurement": "hangover symptoms and overall feelings, average index on scale 1-5", "setting": "hangover symptoms", "result": "reduced the subjects' hangover tendencies"}
    ]}
  ]
}
